Reference: ChEMBL document CHEMBL3745649, “Structure-activity relationship study of anticancer thymidine-quinoxaline conjugates under the low radiance of long wavelength ultraviolet light for photodynamic therapy” (Eur J Med Chem, 2016)
Activity calls are given as the source filed them. The rule behind the calls is not given here.

Experiments:
Bel-7402 [1] = assay: Potency index, ratio of sunitinib EC50 to compound EC50 for human Bel7402 cells in presence of UVA-1 irradiation at 3 mW/cm'2; type: functional
[2] = Dark cytotoxicity against human PANC1 cells assessed as production of reactive oxygen stress at 5 uM after 5 hrs by DCFH-DA based fluorescence microscopic analysis in absence of UVA-1 irradiation; type: cell-based; conditions: panc-1, 5 h
Bel-7402 [3] = assay: Photocytotoxicity against human Bel7402 cells assessed as cell viability pretreated with UVA-1 irradiation at 3.0 mW/cm'2 for 20 mins followed by cell addition measured after 48 hrs by CCK8 assay; type: functional, cell-based
[4] = Photocytotoxicity against human PANC1 cells assessed as cell viability preincubated for 5 hrs followed by UVA-1 irradiation at 0.85 mW/cm'2 for 20 mins measured after 48 hrs by CCK8 assay; type: functional, cell-based; conditions: PANC-1, light or radiation study
[5] = Photocytotoxicity against human Bel7402 cells assessed as cell viability preincubated for 5 hrs with cells followed by white light irradiation at 0.015 mW/cm'2 for 20 mins measured after 48 hrs by CCK8 assay; type: functional, cell-based; conditions: Bel-7402, light or radiation study
[6] = Induction of apoptosis in human PANC1 cells assessed as necrotic cells at 2 uM after 24 hrs by Annexin V-FITC/propidium iodide staining-based flow cytometric analysis in absence of UVA-1 irradiation (reference value: 0.5%); type: cell-based; conditions: panc-1, 24 h
PANC-1 [7] = assay: Potency index, ratio of sunitinib EC50 to compound EC50 for human PANC1 cells in presence of UVA-1 irradiation at 3 mW/cm'2; type: functional
[8] = Photocytotoxicity against human Bel7402 cells assessed as cell viability preincubated for 5 hrs followed by UVA-1 irradiation at 0.85 mW/cm'2 for 20 mins measured after 48 hrs by CCK8 assay; type: functional, cell-based; conditions: Bel-7402, light or radiation study
PANC-1 [9] = assay: Photocytotoxicity against human PANC1 cells assessed as production of reactive oxygen stress at 5 uM preincubated for 5 hrs followed by UVA-1 irradiation at 3 mW/cm'2 for 20 mins measured after 5 hrs by HPLC analysis; type: functional, cell-based
Bel-7402 [10] = assay: Photocytotoxicity against human Bel7402 cells assessed as cell viability preincubated for 24 hrs with cells followed by UVA-1 irradiation for 20 mins at 3.0 mW/cm'2 measured after 48 hrs by CCK8 assay; type: functional, cell-based
[11] = Induction of apoptosis in human PANC1 cells assessed as viable cells at 2 uM after 24 hrs by Annexin V-FITC/propidium iodide staining-based flow cytometric analysis in absence of UVA-1 irradiation (reference value: 88.6%); type: cell-based, PANC-1; conditions: read-out: Activity
PANC-1 [12] = assay: Photocytotoxicity against human PANC1 cells assessed as cell viability pretreated with UVA-1 irradiation at 3.0 mW/cm'2 for 20 mins followed by cell addition measured after 48 hrs by CCK8 assay; type: functional, cell-based
PANC-1 [13] = assay: Induction of apoptosis in human PANC1 cells assessed as necrotic cells at 2 uM preincubated for 5 hrs followed by UVA-1 irradiation at 3 mW/cm'2 for 20 mins measured after 24 hrs by Annexin V-FITC/propidium iodide staining-based flow cytometric analysis (reference value: 0.3%); type: functional
[14] = Photocytotoxicity against human PANC1 cells assessed as cell viability preincubated for 5 hrs with cells followed by white light irradiation at 0.015 mW/cm'2 for 20 mins measured after 48 hrs by CCK8 assay; type: functional, cell-based; conditions: PANC-1, light or radiation study
Bel-7402 [15] = assay: Ratio of EC50 for human Bel7402 cells in presence of UVA-1 irradiation at 0.85 mW/cm'2 to EC50 for human Bel7402 cells in presence of UVA-1 irradiation at 3 mW/cm'2; type: functional
PANC-1 [16] = assay: Photocytotoxicity against human PANC1 cells assessed as cell viability preincubated for 24 hrs with cells followed by UVA-1 irradiation for 20 mins at 3.0 mW/cm'2 measured after 48 hrs by CCK8 assay; type: functional, cell-based
[17] = Dark toxicity against human Bel7402 cells assessed as cell viability after 53 hrs by CCK8 assay in absence of UVA-1 irradiation; type: cell-based, Bel-7402
[18] = Photocytotoxicity against human PANC1 cells assessed as cell viability preincubated for 5 hrs with cells followed by UVA-1 irradiation at 3.0 mW/cm'2 for 20 mins measured after 48 hrs by CCK8 assay; type: functional, cell-based; conditions: PANC-1, light or radiation study
PANC-1 [19] = assay: Photocytotoxicity against human PANC1 cells assessed as production of reactive oxygen stress at 5 uM preincubated for 5 hrs followed by UVA-1 irradiation at 0.85 mW/cm'2 for 20 mins measured for 4 to 10 mins by DCFH-DA based fluorescence microscopic analysis; type: functional, cell-based
[20] = Photocytotoxicity against human Bel7402 cells assessed as cell viability at 10 uM preincubated for 5 hrs with cells followed by white light irradiation at 0.015 mW/cm'2 for 20 mins measured after 48 hrs by CCK8 assay relative to control; type: functional; conditions: Bel-7402, light or radiation study, read-out: Activity
[21] = Photocytotoxicity against human Bel7402 cells assessed as cell viability preincubated for 5 hrs with cells followed by UVA-1 irradiation at 3.0 mW/cm'2 for 20 mins measured after 48 hrs by CCK8 assay; type: functional, cell-based; conditions: Bel-7402, light or radiation study
PANC-1 [22] = assay: Induction of apoptosis in human PANC1 cells assessed as early apoptotic cells at 2 uM preincubated for 5 hrs followed by UVA-1 irradiation at 3 mW/cm'2 for 20 mins measured after 24 hrs by Annexin V-FITC/propidium iodide staining-based flow cytometric analysis (reference value: 7.4%); type: functional
PANC-1 [23] = assay: Induction of apoptosis in human PANC1 cells assessed as viable cells at 2 uM preincubated for 5 hrs followed by UVA-1 irradiation at 3 mW/cm'2 for 20 mins measured after 24 hrs by Annexin V-FITC/propidium iodide staining-based flow cytometric analysis (reference value: 91%); type: functional; conditions: PANC-1, light or radiation study, read-out: Activity
[24] = Retention time of the compound in human PANC1 cells at 5 uM after 5 hrs by HPLC analysis in absence of UVA-1 irradiation; type: ADME, cell-based; conditions: panc-1, 5 h
[25] = Photocytotoxicity against human PANC1 cells assessed as cell viability at 10 uM preincubated for 5 hrs with cells followed by white light irradiation at 0.015 mW/cm'2 for 20 mins measured after 48 hrs by CCK8 assay relative to control; type: functional; conditions: PANC-1, light or radiation study, read-out: Activity
PANC-1 [26] = assay: Induction of apoptosis in human PANC1 cells assessed as late apoptotic cells at 2 uM preincubated for 5 hrs followed by UVA-1 irradiation at 3 mW/cm'2 for 20 mins measured after 24 hrs by Annexin V-FITC/propidium iodide staining-based flow cytometric analysis (reference value: 1.3%); type: functional
[27] = Retention time of the compound in human PANC1 cells at 5 uM preincubated for 5 hrs followed by UVA-1 irradiation at 3 mW/cm'2 for 20 mins measured after 5 hrs by HPLC analysis; type: ADME, cell-based; conditions: panc-1, 5 µM
[28] = Induction of apoptosis in human PANC1 cells assessed as early apoptotic cells at 2 uM after 24 hrs by Annexin V-FITC/propidium iodide staining-based flow cytometric analysis in absence of UVA-1 irradiation (reference value: 9.4%); type: cell-based; conditions: panc-1, 24 h
[29] = Photocytotoxicity against human PANC1 cells assessed as cell viability preincubated for 5 hrs followed by UVA-1 irradiation at 5.4 mW/cm'2 for 20 mins measured after 48 hrs by CCK8 assay; type: functional, cell-based; conditions: PANC-1, light or radiation study
[30] = Photocytotoxicity against human Bel7402 cells assessed as cell viability preincubated for 5 hrs followed by UVA-1 irradiation at 5.4 mW/cm'2 for 20 mins measured after 48 hrs by CCK8 assay; type: functional, cell-based; conditions: Bel-7402, light or radiation study
PANC-1 [31] = assay: Photocytotoxicity against human PANC1 cells assessed as production of reactive oxygen stress at 5 uM preincubated for 5 hrs followed by UVA-1 irradiation at 3 mW/cm'2 for 20 mins by DCFH-DA based fluorescence microscopic analysis; type: functional, cell-based
[32] = Dark toxicity against human PANC1 cells assessed as cell viability after 53 hrs by CCK8 assay in absence of UVA-1 irradiation; type: cell-based, PANC-1
PANC-1 [33] = assay: Ratio of EC50 for human PANC1 cells in presence of UVA-1 irradiation at 0.85 mW/cm'2 to EC50 for human PANC1 cells in presence of UVA-1 irradiation at 3 mW/cm'2; type: functional
Bel-7402 [34] = assay: Photocytotoxicity against human Bel7402 cells assessed as production of reactive oxygen stress at 5 uM preincubated for 5 hrs followed by UVA-1 irradiation at 0.85 mW/cm'2 for 20 mins measured for 4 to 10 mins by DCFH-DA based fluorescence microscopic analysis; type: functional, cell-based
[35] = Retention time of the compound at 5 uM by HPLC analysis; type: physicochemical
[36] = Induction of apoptosis in human PANC1 cells assessed as late apoptotic cells at 2 uM after 24 hrs by Annexin V-FITC/propidium iodide staining-based flow cytometric analysis in absence of UVA-1 irradiation (reference value: 1.5%); type: cell-based; conditions: panc-1, 24 h

With `Cc1cn([C@H]2C[C@H](n3cc(CNC(=O)CCCCCOc4ccc5c(c4)-c4nc6cc(Cl)c(Cl)cc6nc4[C@@H]4C(C)(C)CCC[C@]54C)nn3)[C@@H](CO)O2)c(=O)[nH]c1=O` as the compound, how does the “Ratio EC50” value (Bel-7402 [1]) read?
The value was 10.

And the Activity [2]?
Its Activity is “Non-toxic”.

What about the Activity (Bel-7402 [3]) of the same compound?
Its Activity is “inactive”.

And the EC50 [4]?
The EC50 was 5.7 µM.

And the EC50 [5]?
The EC50 was greater than 10 µM.

And the Activity [6]?
Its Activity is 0.4%.

And the “Ratio EC50” value (PANC-1 [7])?
Its value is 20.

And the EC50 [8]?
Its EC50 is 2 µM.

And the Activity (PANC-1 [9])?
The Activity was “Active”.

And the Activity (Bel-7402 [10])?
The Activity was “Active”.

And the viability at 24 h, 2 µM [11]?
Its viability at 24 h, 2 µM is 89.4%.

And the Activity (PANC-1 [12])?
Its Activity is “inactive”.

What about the Activity (PANC-1 [13]) of the same compound?
Its Activity is 3.5%.

And the EC50 [14]?
The EC50 was greater than 10 µM.

And the “Ratio EC50” value (Bel-7402 [15])?
The value was 3.

And the Activity (PANC-1 [16])?
Its Activity is “Active”.

And the EC50 at 53 h [17]?
Its EC50 at 53 h is greater than 20 µM.

And the EC50 [18]?
The EC50 was 1.3 µM.

And the Activity (PANC-1 [19])?
The Activity was “Active”.

And the viability at 10 µM [20]?
Its viability at 10 µM is less than 40%.

And the EC50 [21]?
The EC50 was 0.67 µM.

What about the Activity (PANC-1 [22]) of the same compound?
The Activity was 11.9%.

And the viability at 2 µM (PANC-1 [23])?
Its viability at 2 µM is 40.5%.

What about the Retention_time [24] of the same compound?
The Retention_time was 68 min.

What about the viability at 10 µM [25] of the same compound?
The viability at 10 µM was less than 40%.

What about the Activity (PANC-1 [26]) of the same compound?
The Activity was 44.1%.

And the Retention_time [27]?
The Retention_time was 68 min.

What about the Activity [28] of the same compound?
The Activity was 8.8%.

What about the EC50 [29] of the same compound?
The EC50 was 1.2 µM.

What about the EC50 [30] of the same compound?
Its EC50 is 0.61 µM.

And the Activity (PANC-1 [31])?
The Activity was “Active”.

What about the EC50 at 53 h [32] of the same compound?
The EC50 at 53 h was no less than 50 µM.

What about the “Ratio EC50” value (PANC-1 [33]) of the same compound?
Its value is 4.

What about the Activity (Bel-7402 [34]) of the same compound?
The Activity was “Active”.

What about the Retention_time [35] of the same compound?
The Retention_time was 68 min.

What about the Activity [36] of the same compound?
The Activity was 1.4%.
